Patent EP4745135A1 (Gluetacs Therapeutics (Shanghai) Co., Ltd., priority 2023, dated 2025)

Experiments:
CK1α = molecular target: T1, CK1α (Homo sapiens, UniProt P48729+Q96SW2); assay: Western blot, degradation of substrate protein in hPBMCs; type: cell-based
T1 construct: effects of the compounds of the present disclosure on the expression of target proteins in cells; endogenous in cells; host or cells: human PBMCs (Milecell Biotechnologies)

IKZF1 = molecular target: T2, IKZF1 (Homo sapiens, UniProt Q13422+Q96SW2); assay: as above; type: cell-based
T2 construct: effects of the compounds of the present disclosure on the expression of target proteins in cells; endogenous in cells; host or cells: human PBMCs (Milecell Biotechnologies)
T2 sequence (Q13422 whole entry): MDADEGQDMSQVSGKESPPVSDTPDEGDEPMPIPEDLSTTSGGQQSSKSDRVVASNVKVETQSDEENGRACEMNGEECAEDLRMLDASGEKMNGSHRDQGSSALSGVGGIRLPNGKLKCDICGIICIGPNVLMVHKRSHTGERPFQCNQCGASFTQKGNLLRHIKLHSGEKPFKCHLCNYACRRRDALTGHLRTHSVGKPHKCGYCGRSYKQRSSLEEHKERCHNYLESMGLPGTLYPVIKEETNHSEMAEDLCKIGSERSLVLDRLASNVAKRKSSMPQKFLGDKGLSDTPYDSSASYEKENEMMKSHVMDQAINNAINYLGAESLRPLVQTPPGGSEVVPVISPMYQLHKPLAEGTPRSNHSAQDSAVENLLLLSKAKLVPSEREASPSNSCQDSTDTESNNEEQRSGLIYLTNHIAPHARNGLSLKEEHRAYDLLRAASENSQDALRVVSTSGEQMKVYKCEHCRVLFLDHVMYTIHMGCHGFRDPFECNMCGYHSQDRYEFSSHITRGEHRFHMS
T2 sequence (Q96SW2 whole entry): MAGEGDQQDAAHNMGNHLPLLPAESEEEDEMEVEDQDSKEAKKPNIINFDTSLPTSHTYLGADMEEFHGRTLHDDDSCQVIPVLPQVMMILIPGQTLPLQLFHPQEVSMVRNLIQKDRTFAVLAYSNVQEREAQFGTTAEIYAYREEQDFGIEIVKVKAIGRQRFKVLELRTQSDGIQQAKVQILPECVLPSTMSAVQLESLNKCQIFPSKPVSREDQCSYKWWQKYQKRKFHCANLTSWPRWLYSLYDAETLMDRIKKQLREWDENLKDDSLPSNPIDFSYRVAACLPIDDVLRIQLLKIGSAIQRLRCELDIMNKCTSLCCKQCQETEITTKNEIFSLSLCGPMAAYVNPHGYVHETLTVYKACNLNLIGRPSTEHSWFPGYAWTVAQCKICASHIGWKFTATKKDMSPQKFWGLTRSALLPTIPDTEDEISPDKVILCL
T2 sequence (Q16531 whole entry partner): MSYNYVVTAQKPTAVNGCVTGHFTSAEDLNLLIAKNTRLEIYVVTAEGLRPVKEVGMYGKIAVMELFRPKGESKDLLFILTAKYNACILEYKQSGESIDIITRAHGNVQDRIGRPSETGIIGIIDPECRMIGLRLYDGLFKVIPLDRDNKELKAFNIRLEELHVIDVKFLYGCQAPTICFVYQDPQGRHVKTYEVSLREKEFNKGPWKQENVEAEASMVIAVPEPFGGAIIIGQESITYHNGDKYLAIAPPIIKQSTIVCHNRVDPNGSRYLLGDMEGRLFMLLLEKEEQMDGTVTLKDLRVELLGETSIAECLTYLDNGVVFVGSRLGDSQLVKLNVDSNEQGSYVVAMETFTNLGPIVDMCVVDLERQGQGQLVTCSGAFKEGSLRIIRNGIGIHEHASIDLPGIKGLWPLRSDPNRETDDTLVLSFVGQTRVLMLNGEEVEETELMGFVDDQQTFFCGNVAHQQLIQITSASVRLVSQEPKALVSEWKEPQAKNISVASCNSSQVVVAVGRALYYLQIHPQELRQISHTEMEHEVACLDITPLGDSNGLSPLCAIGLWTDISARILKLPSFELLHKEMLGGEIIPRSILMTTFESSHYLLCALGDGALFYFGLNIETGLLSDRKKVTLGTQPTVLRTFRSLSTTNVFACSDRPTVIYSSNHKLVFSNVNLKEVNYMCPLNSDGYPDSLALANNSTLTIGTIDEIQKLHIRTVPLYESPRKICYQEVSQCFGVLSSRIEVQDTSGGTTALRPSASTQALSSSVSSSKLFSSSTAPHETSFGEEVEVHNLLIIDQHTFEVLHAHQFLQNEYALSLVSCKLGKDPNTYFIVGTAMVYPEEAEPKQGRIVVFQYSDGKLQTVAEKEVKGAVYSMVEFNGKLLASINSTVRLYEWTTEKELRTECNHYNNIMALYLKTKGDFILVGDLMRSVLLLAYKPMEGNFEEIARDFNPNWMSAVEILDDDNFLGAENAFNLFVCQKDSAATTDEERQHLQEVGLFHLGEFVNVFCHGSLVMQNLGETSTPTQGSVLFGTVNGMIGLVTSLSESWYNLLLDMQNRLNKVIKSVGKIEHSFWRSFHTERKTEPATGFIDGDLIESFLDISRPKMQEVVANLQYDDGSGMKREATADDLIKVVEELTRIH

IKZF2 = molecular target: T3, IKZF2 (Homo sapiens, UniProt Q96SW2+Q9UKS7); assay: as above; type: cell-based
T3 construct: effects of the compounds of the present disclosure on the expression of target proteins in cells; endogenous in cells; host or cells: human PBMCs (Milecell Biotechnologies)
T3 sequence (Q9UKS7 whole entry): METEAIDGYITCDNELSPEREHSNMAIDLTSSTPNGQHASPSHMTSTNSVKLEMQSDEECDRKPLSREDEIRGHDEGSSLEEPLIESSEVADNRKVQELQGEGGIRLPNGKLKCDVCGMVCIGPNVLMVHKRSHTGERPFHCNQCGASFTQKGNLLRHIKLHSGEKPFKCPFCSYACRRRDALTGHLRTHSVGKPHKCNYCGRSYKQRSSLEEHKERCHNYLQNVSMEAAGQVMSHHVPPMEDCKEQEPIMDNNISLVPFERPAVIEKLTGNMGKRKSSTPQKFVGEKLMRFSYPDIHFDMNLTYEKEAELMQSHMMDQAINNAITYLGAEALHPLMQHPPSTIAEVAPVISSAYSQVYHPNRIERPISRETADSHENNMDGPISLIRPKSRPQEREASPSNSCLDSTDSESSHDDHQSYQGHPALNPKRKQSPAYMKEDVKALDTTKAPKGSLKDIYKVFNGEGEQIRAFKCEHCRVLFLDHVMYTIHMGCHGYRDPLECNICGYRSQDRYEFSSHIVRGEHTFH
T3 sequence (Q96SW2 whole entry): as the sequence (Q96SW2 whole entry) above
T3 sequence (Q16531 whole entry partner): as the sequence (Q16531 whole entry partner) above

IKZF3 = molecular target: T4, IKZF3 (Homo sapiens, UniProt Q96SW2+Q9UKT9); assay: as above; type: cell-based
T4 construct: effects of the compounds of the present disclosure on the expression of target proteins in cells; endogenous in cells; host or cells: human PBMCs (Milecell Biotechnologies)
T4 sequence (Q9UKT9 whole entry): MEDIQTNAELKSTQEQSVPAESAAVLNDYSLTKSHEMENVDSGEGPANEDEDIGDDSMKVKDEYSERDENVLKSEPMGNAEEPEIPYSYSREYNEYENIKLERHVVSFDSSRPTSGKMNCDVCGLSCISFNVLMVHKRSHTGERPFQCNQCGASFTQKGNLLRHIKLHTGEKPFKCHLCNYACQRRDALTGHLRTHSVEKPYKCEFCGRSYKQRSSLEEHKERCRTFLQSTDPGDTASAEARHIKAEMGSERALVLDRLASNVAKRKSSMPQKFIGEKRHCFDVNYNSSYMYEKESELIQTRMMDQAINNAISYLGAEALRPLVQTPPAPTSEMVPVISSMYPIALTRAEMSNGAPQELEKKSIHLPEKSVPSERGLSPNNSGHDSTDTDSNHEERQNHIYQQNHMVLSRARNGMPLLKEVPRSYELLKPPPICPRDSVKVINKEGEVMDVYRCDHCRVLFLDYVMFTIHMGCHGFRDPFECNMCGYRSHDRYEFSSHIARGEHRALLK
T4 sequence (Q96SW2 whole entry): as the sequence (Q96SW2 whole entry) above
T4 sequence (Q16531 whole entry partner): as the sequence (Q16531 whole entry partner) above

WEE1 = molecular target: T5, WEE1 (Homo sapiens, UniProt P30291+Q96SW2); assay: as above; type: cell-based
T5 construct: effects of the compounds of the present disclosure on the expression of target proteins in cells; endogenous in cells; host or cells: human PBMCs (Milecell Biotechnologies)
T5 sequence (P30291 whole entry): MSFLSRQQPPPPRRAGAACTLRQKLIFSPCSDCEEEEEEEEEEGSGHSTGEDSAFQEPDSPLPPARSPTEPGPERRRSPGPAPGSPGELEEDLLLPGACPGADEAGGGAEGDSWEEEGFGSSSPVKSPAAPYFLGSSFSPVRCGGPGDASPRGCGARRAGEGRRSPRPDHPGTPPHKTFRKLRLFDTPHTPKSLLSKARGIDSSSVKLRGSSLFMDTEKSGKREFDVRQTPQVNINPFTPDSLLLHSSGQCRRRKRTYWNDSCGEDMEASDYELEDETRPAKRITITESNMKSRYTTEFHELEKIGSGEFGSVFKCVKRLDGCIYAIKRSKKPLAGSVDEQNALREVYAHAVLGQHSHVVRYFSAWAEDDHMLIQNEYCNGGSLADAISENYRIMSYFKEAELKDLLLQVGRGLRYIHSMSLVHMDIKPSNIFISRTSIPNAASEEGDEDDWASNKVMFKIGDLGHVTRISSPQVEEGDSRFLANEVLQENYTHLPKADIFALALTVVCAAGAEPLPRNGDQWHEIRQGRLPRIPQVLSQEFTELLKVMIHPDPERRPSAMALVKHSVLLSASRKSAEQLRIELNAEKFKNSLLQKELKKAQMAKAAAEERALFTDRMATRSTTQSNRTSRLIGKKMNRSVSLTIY
T5 sequence (Q96SW2 whole entry): as the sequence (Q96SW2 whole entry) above
T5 sequence (Q16531 whole entry partner): as the sequence (Q16531 whole entry partner) above

GSPT1 = assay: as above; type: cell-based, Human
[1] = molecular target: T6, human Cereblon WT GST-tagged protein (Homo sapiens, UniProt Q96SW2); assay: CRBN-binding affinity, HTRF (CEREBLON BINDING kit); conditions: for inhibition at 0.5 µM: read-out: Inhibition Rate at 0.5 µM (%); for inhibition at 2 µM: read-out: Inhibition Rate at 2 µM (%)
T6 construct: purchased CISBIO 64BDCRBNPEH
T6 sequence (Q96SW2 whole entry): as the sequence (Q96SW2 whole entry) above

[2] = system: Human multiple myeloma cell (MM.1S); assay: Tumor cell proliferation inhibition (CellTiter-Meiluncell luminescent cell viability assay); conditions: Homo sapiens, MM1.S, 96 h; for inhibition at 0.01 µM: read-out: Inhibition Rate at 10 nM (%); for inhibition at 0.5 µM: read-out: Inhibition Rate at 500 nM (%)
[3] = system: Human breast cancer cell (MCF-7); assay: as above; conditions: MCF7, 96 h; for inhibition at 0.01 µM: read-out: Inhibition Rate at 10 nM (%); for inhibition at 0.5 µM: read-out: Inhibition Rate at 500 nM (%)
[4] = Western blot, 24 hours of compound treatment, compounds tested at 50 nM and 500 nM (concentration for the table not stated)
[5] = 24 hours treatment, compounds at 50 nM and 500 nM (concentration behind the class not stated)

T1 sequence (P48729 whole entry): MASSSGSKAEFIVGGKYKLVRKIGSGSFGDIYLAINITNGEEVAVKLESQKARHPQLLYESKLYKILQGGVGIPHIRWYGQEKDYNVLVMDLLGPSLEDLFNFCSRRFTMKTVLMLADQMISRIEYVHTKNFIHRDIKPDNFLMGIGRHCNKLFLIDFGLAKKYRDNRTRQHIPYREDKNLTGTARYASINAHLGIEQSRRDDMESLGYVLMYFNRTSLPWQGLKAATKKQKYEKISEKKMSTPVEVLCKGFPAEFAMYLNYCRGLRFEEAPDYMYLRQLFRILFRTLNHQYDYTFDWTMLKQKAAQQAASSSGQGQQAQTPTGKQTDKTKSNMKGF
T1 sequence (Q96SW2 whole entry): as the sequence (Q96SW2 whole entry) above
T1 sequence (Q16531 whole entry partner): as the sequence (Q16531 whole entry partner) above

Row | Structure (SMILES) | CK1α substrate protein remaining % (CK1α; [4]) | IKZF 1 substrate protein remaining % (IKZF1; [4]) | IKZF2 substrate protein remaining % (IKZF2; [4]) | IKZF3 substrate protein remaining % (IKZF3; [4]) | Wee1 substrate protein remaining % (WEE1; [4]) | GSPT1 substrate protein remaining % (GSPT1; [4]) | inhibition at 0.5 µM [1] | inhibition at 2 µM [1] | inhibition at 0.01 µM [2] | inhibition at 0.5 µM [2] | inhibition at 0.01 µM [3] | inhibition at 0.5 µM [3] | CK1α substrate protein remaining % (CK1α; [5]) | IKZF 1 substrate protein remaining % (IKZF1; [5]) | IKZF2 substrate protein remaining % (IKZF2; [5]) | IKZF3 substrate protein remaining % (IKZF3; [5]) | Wee1 substrate protein remaining % (WEE1; [5]) | GSPT1 substrate protein remaining % (GSPT1; [5])
1 | O=C1CCC(N2Cc3c(CN4CCC(N5CCc6cc(F)ccc65)CC4)cccc3C2=S)C(=O)N1 (centres unmarked) [GT-08845, 3-(4-((4-(5-fluoroindolin-1-yl)piperidin-1-yl)methyl)-1-thioxoisoindolin-2-yl)piperidine-2,6-dione] | B (80%< substrate protein remaining %≤ 100%) | B (80%< substrate protein remaining %≤ 100%) | B (80%< substrate protein remaining %≤ 100%) | B (80%< substrate protein remaining %≤ 100%) | A (0% ≤ substrate protein remaining % ≤ 80%) | A (0% ≤ substrate protein remaining % ≤ 80%) | 40 to 53% | 80 to 100% | 20 to 30% | 40 to 50% | 50 to 60% | 60 to 70% |  |  |  |  |  | 
2 | O=C1CCC(N2Cc3c(CN4CCC(n5c(=O)[nH]c6cc(F)ccc65)CC4)cccc3C2=S)C(=O)N1 (centres unmarked) [GT-08843, 3-(4-((4-(5-fluoro-2-oxo-2,3-dihydro-1H-benzo[d]imidazol-1-yl)piperidin-1-yl)methyl)-1-thioxoisoindolin-2-yl)piperidine-2,6-dione] | B (80%< substrate protein remaining %≤ 100%) | B (80%< substrate protein remaining %≤ 100%) | B (80%< substrate protein remaining %≤ 100%) | B (80%< substrate protein remaining %≤ 100%) | A (0% ≤ substrate protein remaining % ≤ 80%) | B (80%< substrate protein remaining %≤ 100%) | 60 to 80% | 80 to 100% |  |  | 60 to 70% | 60 to 70% |  |  |  |  |  | 
3 | O=C1CCC(N2Cc3c(CN4CC(n5cnc6cc(F)ccc65)C4)cccc3C2=S)C(=O)N1 (centres unmarked) [GT-08861, 3-(4-((3-(5-fluoro-1H-benzo[d]imidazol-1-yl)azetidin-1-yl)methyl)-1-thioxoisoindolin-2-yl)piperidine-2,6-dione] |  |  |  |  |  |  | 40 to 53% | 80 to 100% |  |  | 30 to 40% | 40 to 50% | B (80%< substrate protein remaining %≤ 100%) | B (80%< substrate protein remaining %≤ 100%) | B (80%< substrate protein remaining %≤ 100%) | B (80%< substrate protein remaining %≤ 100%) | A (0% ≤ substrate protein remaining % ≤ 80%) | B (80%< substrate protein remaining %≤ 100%)
4 | O=C1CCC(N2Cc3c(CN4CC=C(c5ncnc6sccc56)CC4)cccc3C2=S)C(=O)N1 (centres unmarked) [GT-08937, 3-(4-((4-(thieno[2,3-d]pyrimidin-4-yl)-3,6-dihydropyridin-1(2H)-yl)methyl)-1-thioxoisoindolin-2-yl)piperidine-2,6-dione] |  |  |  |  |  |  | 60 to 80% | 80 to 100% |  |  | 30 to 40% | 40 to 50% | B (80%< substrate protein remaining %≤ 100%) | B (80%< substrate protein remaining %≤ 100%) | B (80%< substrate protein remaining %≤ 100%) | B (80%< substrate protein remaining %≤ 100%) | A (0% ≤ substrate protein remaining % ≤ 80%) | A (0% ≤ substrate protein remaining % ≤ 80%)
5 | O=C1CCC(N2Cc3c(CN4CCN(c5ncnc6sc7c(c56)CCC7)CC4)cccc3C2=S)C(=O)N1 (centres unmarked) [GT-08925, 3-(4-((4-(6,7-dihydro-5H-cyclopenta[4,5]thieno[2,3-d]pyrimidin-4-yl)piperazin-1-yl)methyl)-1-thioxoisoindolin-2-yl)piperidine-2,6-dione] |  |  |  |  |  |  | 60 to 80% | 80 to 100% |  |  | 60 to 70% | 60 to 70% | B (80%< substrate protein remaining %≤ 100%) | B (80%< substrate protein remaining %≤ 100%) | A (0% ≤ substrate protein remaining % ≤ 80%) | A (0% ≤ substrate protein remaining % ≤ 80%) | A (0% ≤ substrate protein remaining % ≤ 80%) | B (80%< substrate protein remaining %≤ 100%)
6 | O=C1CCC(N2Cc3c(CN4CCC(c5ncnc6sccc56)CC4)cccc3C2=S)C(=O)N1 (centres unmarked) [GT-08928, 3-(4-((4-(thieno[2,3-d]pyrimidin-4-yl)piperidin-1-yl)methyl)-1-thioxoisoindolin-2-yl)piperidine-2,6-dione] |  |  |  |  |  |  | 60 to 80% | 80 to 100% |  |  | 40 to 50% | 60 to 70% | B (80%< substrate protein remaining %≤ 100%) | B (80%< substrate protein remaining %≤ 100%) | B (80%< substrate protein remaining %≤ 100%) | B (80%< substrate protein remaining %≤ 100%) | A (0% ≤ substrate protein remaining % ≤ 80%) | B (80%< substrate protein remaining %≤ 100%)
7 | O=C1CCC(N2Cc3c(CN4CCN(c5ncnc6scc(-c7ccccc7)c56)CC4)cccc3C2=S)C(=O)N1 (centres unmarked) [GT-08920, 3-(4-((4-(5-phenylthieno[2,3-d]pyrimidin-4-yl)piperazin-1-yl)methyl)-1-thioxoisoindolin-2-yl)piperidine-2,6-dione] |  |  |  |  |  |  | 40 to 53% | 80 to 100% | 30 to 40% | 40 to 50% | 50 to 60% | 30 to 40% |  |  |  |  |  | 
8 | O=C1CCC(N2Cc3cc(CN4CCN(c5nc(N6CCOCC6)nc6c5SCC6)CC4)ccc3C2=S)C(=O)N1 (centres unmarked) [GT-09329, 3-(5-((4-(2-morpholino-6,7-dihydrothieno[3,2-d]pyrimidin-4-yl)piperazin-1-yl)methyl)-1-thioxoisoindolin-2-yl)piperidine-2,6-dione] |  |  |  |  |  |  | 60 to 80% | 80 to 100% |  |  | 20 to 30% | 40 to 50% | B (80%< substrate protein remaining %≤ 100%) | B (80%< substrate protein remaining %≤ 100%) | A (0% ≤ substrate protein remaining % ≤ 80%) | B (80%< substrate protein remaining %≤ 100%) | B (80%< substrate protein remaining %≤ 100%) | A (0% ≤ substrate protein remaining % ≤ 80%)
9 | Cc1nc(N2CCN(Cc3cccc4c3CN(C3CCC(=O)NC3=O)C4=S)CC2)c2c3c(sc2n1)CCCC3 (centres unmarked) [GT-08923, 3-(4-((4-(2-methyl-5,6,7,8-tetrahydrobenzo[4,5]thieno[2,3-d]pyrimidin-4-yl)piperazin-1-yl)methyl)-1-thioxoisoindolin-2-yl)piperidine-2,6-dione] |  |  |  |  |  |  | 30 to 40% | 80 to 100% |  |  | 70 to 80% | 70 to 80% | B (80%< substrate protein remaining %≤ 100%) | B (80%< substrate protein remaining %≤ 100%) | B (80%< substrate protein remaining %≤ 100%) | B (80%< substrate protein remaining %≤ 100%) | A (0% ≤ substrate protein remaining % ≤ 80%) | B (80%< substrate protein remaining %≤ 100%)
10 | O=C1CCC(N2Cc3c(CN4CCC(c5ncnc6sc7c(c56)CCC7)CC4)cccc3C2=S)C(=O)N1 (centres unmarked) [GT-08934, 3-(4-((4-(6,7-dihydro-5H-cyclopenta[4,5]thieno[2,3-d]pyrimidin-4-yl)piperidin-1-yl)methyl)-1-thioxoisoindolin-2-yl)piperidine-2,6-dione] |  |  |  |  |  |  | 40 to 53% | 53 to 60% |  |  | 30 to 40% | 40 to 50% | B (80%< substrate protein remaining %≤ 100%) | A (0% ≤ substrate protein remaining % ≤ 80%) | B (80%< substrate protein remaining %≤ 100%) | A (0% ≤ substrate protein remaining % ≤ 80%) | A (0% ≤ substrate protein remaining % ≤ 80%) | A (0% ≤ substrate protein remaining % ≤ 80%)
